Data from patent publication US11274090B2, “P300/CBP HAT inhibitors” (Constellation Pharmaceuticals, Inc., priority 2018, dated 2022).

Assays:
[1] = target: p300 HAT domain (residues 1287-1666) (Homo sapiens (Human), UniProt Q09472); assay: p300 HAT SPA assay (scintillation proximity assay, acetylation of biotinylated H3(1-21) peptide); type: biochemical; details: average of at least 2 replicate titrations
Method in brief: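 Scintillation proximity readout of acetylated biotin-H3(1-21) captured on streptavidin plates after 1.5 hr at RT; enzyme was Ni2+/anion-exchange-purified HAT domain in 20 mM Hepes pH 7.5. Inhibitor IC50s calculated from the data.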

[2] = tested on: acetylation of chromatin at H3K18 (p300 and CBP) in HCT-116 cells; assay: H3K18Ac MSD cellular assay; type: cell-based; details: 2 hr treatment
Method: Select compounds were also evaluated in a H3K18Ac MSD cellular assay that measures the ability of compounds to inhibit the acetylation of chromatin at H3K18, a process catalyzed by p300 and CBP. In a typical experiment the p300 HAT inhibitory activity inside cells of the compounds described herein was determined in accordance with the following experimental method. 20 k HCT-116 cells per well are plated in 75 μL RPMI+10% FBS media the night before treatment. Compounds plated in DMSO at 4× final concentration are resuspended in 30 μL RPMI+10% FBS, then 25 μL is combined with corresponding wells containing cells. Treated cells are incubated for 2 hr at 37° C., then lysed in 500 μL final volume and frozen at −80° C. MSD plates (Meso Scale Discovery) are coated overnight at 4° C. with 60 μL 1:500 α-total histone antibody (Millipore MAB3422) in PBS. Plates are then blocked with 5% BSA in TBST shaking at RT for 1 hr, washed, and 30 μL lysate added to each well for 2 hr shaking at RT. Plates are washed and 25 μL 1:216 α-H3K18ac antibody (CST 9675) in PBS added, then incubated for 1 hr shaking at RT. Plates are washed again, then 25 μL 1:1000 Sulfo-Tag goat α-rabbit antibody (Meso Scale Discovery R32Ab-1) in PBS is added for 1 hr shaking at RT. Plates are washed once more, then 150 μL 1× Read Buffer (MSD #R92TD-3) is added to all wells and read on MSD SECTOR Imager 2400 using the conventional read setup.

full length p300 = full length p300 (Homo sapiens (Human), UniProt Q09472); assay: full length p300 SPA assay; type: biochemical; details: average of at least 2 replicate titrations, read-out: FL P300 IC50
Method: Reactions were initiated with 12.5 μL 2 μM biotinylated H3(1-21) peptide (New England Peptide) and run for 1 hr at RT, then quenched with 20 μL stop solution (200 mM Tris pH 8.0, 200 mM EDTA, 2M NaCl, 160 μM anacardic acid). 35 μL of the reaction volume was transferred to a 384-well streptavidin FlashPlate (PerkinElmer) using a Bravo liquid handler (Velocity 11) and incubated for 1.5 hr at RT. Plates were aspirated, washed with 95 μL wash buffer (15 mM Tris pH 8.5, 0.069 μM Brij-35), aspirated, sealed, and scintillation counts read on a Topcount (PerkinElmer). Data were analyzed in Genedata to determine inhibitor IC50 values.
The full length p300 SPA assay was run following the same protocol as p300 HAT SPA assay, but used 6 nM purified full length p300 (purchased from Active Motif) in place of the purified p300-HAT domain.

Sequence of full length p300 (Q09472 whole entry): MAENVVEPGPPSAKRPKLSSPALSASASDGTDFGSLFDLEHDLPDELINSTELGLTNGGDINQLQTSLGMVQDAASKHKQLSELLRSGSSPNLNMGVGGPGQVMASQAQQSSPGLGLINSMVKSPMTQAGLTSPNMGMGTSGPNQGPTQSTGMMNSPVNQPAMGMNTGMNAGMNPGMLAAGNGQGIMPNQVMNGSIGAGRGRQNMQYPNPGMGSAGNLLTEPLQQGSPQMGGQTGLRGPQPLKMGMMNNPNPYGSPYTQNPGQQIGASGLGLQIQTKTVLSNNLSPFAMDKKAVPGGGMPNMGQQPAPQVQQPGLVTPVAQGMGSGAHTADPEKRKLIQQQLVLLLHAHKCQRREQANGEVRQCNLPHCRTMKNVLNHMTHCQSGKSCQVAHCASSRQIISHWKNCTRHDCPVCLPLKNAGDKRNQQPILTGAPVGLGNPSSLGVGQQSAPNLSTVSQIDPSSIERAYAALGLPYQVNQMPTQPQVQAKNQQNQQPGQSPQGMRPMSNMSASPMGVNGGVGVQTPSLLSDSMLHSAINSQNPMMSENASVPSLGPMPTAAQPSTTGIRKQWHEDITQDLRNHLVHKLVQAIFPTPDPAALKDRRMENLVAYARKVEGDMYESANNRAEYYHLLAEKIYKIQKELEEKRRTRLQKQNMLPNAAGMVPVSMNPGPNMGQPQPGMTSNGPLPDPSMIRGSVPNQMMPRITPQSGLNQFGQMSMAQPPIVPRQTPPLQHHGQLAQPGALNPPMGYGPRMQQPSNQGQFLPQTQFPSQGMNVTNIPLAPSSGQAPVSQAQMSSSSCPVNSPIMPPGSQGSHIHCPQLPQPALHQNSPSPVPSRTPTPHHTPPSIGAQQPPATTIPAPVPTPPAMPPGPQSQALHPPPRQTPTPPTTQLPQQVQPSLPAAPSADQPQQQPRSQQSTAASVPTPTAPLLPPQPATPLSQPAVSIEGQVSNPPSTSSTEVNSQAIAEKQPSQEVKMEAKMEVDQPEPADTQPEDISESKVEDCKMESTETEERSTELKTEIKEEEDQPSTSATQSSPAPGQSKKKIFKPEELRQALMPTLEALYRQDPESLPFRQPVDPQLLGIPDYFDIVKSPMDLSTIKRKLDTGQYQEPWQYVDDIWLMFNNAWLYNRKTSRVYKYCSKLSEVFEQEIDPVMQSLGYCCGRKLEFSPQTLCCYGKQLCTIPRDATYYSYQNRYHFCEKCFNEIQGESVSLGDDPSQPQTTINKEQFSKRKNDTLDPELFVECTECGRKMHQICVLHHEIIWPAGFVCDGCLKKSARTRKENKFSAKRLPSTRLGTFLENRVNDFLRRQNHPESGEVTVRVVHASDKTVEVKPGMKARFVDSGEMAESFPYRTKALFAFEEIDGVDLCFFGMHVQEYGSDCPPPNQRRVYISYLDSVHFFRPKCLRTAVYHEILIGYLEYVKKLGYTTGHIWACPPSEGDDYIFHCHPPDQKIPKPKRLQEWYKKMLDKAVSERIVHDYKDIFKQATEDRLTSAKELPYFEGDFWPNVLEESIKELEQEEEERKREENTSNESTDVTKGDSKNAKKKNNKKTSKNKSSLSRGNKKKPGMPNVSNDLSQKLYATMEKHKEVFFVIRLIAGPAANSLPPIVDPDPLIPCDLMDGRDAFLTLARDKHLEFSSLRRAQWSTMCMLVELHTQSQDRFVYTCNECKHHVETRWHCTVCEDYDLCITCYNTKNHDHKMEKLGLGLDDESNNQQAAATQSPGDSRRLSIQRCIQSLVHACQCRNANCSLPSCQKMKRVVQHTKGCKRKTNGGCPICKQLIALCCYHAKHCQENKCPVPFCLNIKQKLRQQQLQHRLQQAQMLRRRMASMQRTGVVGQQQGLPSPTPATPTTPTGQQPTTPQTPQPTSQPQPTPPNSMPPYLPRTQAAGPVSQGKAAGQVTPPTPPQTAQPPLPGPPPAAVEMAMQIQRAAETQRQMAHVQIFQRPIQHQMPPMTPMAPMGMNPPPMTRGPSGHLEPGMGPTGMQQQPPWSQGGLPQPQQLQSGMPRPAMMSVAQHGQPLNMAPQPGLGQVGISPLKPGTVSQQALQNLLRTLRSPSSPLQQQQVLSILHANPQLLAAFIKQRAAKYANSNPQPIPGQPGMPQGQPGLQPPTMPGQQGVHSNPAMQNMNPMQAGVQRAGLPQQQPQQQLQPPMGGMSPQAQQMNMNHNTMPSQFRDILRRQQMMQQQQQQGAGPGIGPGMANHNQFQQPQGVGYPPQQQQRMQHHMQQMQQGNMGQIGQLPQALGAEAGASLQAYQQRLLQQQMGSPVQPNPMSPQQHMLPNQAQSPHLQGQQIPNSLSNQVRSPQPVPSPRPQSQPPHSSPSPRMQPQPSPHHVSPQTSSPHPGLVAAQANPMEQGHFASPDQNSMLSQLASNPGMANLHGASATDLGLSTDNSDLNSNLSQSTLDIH
Sequence of p300 HAT domain (residues 1287-1666) (Q09472 1287-1666): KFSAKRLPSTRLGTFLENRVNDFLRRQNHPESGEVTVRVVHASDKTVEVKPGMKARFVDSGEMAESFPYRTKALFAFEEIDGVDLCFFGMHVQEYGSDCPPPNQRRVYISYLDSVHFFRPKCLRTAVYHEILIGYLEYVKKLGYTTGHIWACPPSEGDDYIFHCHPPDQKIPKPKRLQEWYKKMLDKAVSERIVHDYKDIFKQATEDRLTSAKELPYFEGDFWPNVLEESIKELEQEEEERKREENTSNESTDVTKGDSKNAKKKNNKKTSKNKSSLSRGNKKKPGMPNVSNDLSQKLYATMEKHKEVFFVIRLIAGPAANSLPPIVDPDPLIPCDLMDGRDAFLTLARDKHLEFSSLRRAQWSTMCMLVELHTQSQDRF

IC50 [1] [nM] | EC50 ([2]; Homo sapiens) [nM] | EC50 [2] [nM] | EC50 ([2]; Homo sapiens, HCT-116, 2 h) [nM] | IC50 (full length p300) [nM] | Compound
119 | 324 | – | – | – | CC(CNC(C(=O)Nc1ccc(-c2cnn(C)c2)cc1)c1ccccc1)c1ccc(Cl)cc1 (single isomer, unassigned) [2 Isomer 2]
479 | 1800 | – | – | – | N#Cc1ccc(CCNC(C(=O)Nc2ccc(-c3cccnn3)cc2)c2ccccc2)cc1 (single isomer, unassigned) [12 Isomer 2]
191 | 479 | – | – | – | Cn1ccc(-c2ccc(NC(=O)C(NCCc3ccc(C#N)cc3)c3ccccc3)nc2)n1 (single isomer, unassigned) [14 Isomer 2]
614 | 1130 | – | – | – | Cc1cn(-c2ccc(NC(=O)[C@@H](NCCc3ccc(Cl)cc3)c3ccccc3)cc2)cn1 (single isomer, unassigned) [16 Isomer 1]
655 | 998 | – | – | – | CN1CCN(c2ccc(NC(=O)[C@@H](NCCc3ccc(Cl)cc3)c3ccccc3)cc2)CC1 (single isomer, unassigned) [17 Isomer 1]
– | – | 24.6 | – | – | Cn1cc(-c2ccc(NC(=O)C(NCCc3ccc(C#N)cc3)c3ccccc3)nc2)cn1 (single isomer, unassigned) [22 Isomer 1]
– | – | 66.8 | – | – | Cn1cc(-c2ccc(NC(=O)C(NCCc3ccc(C#N)cc3)c3ccccc3)nc2)cn1 (single isomer, unassigned) [22 Isomer 2]
576 | 2020 | – | – | – | Cn1cc(-c2ccc(NC(=O)C(NCCc3ccc(C#N)cc3)c3ccccc3)cc2Cl)cn1 (single isomer, unassigned) [27 Isomer 1]
65.4 | 118 | – | – | – | N#Cc1ccc(CCNC(C(=O)Nc2ccc(N3CCCC3)cn2)c2ccccc2)cc1 (single isomer, unassigned) [37 Isomer 1]
53.6 | 333 | – | – | – | N#Cc1ccc(CCNC(C(=O)Nc2ccc(C3CC3)cn2)c2ccccc2)cc1 (single isomer, unassigned) [42 Isomer 1]
79.3 | 48.4 | – | – | – | CN1CCN(c2ccc(NC(=O)C(NCCc3ccc(C#N)cc3)c3ccccc3)nc2)CC1 (single isomer, unassigned) [49 Isomer 1]
15 | 22.9 | – | – | – | Cn1cc(-c2ccc(NC(=O)C(NCCc3ccc(C#N)cc3Cl)c3ccccc3)nc2)cn1 (single isomer, unassigned) [51 Isomer 1]
19 | 31.5 | – | – | – | Cn1cc(-c2ccc(NC(=O)C(NCCc3ccc(Cl)cc3)c3ccccc3)nc2)cn1 (single isomer, unassigned) [55 Isomer 1]
416 | – | – | 444 | – | Cn1cc(-c2cnc(NC(=O)C(NCCc3ccc(C#N)cc3)c3ccccc3)cn2)cn1 (single isomer, unassigned) [56 Isomer 1]
> 2000 | – | – | – | 224 | Cc1cnn(-c2ccc(NC(=O)C(NCC(C)c3ccc(C#N)cc3)c3ccccc3)nc2)c1 (single isomer, unassigned) [62 Isomer 1]
565 | – | – | – | 16.7 | Cc1cnn(-c2ccc(NC(=O)C(NCC(C)c3ccc(C#N)cc3)c3ccccc3)nc2)c1 (single isomer, unassigned) [62 Isomer 2]
> 2000 | – | – | – | 618 | Cc1cnn(-c2ccc(NC(=O)C(NCC(C)c3ccc(C#N)cc3)c3ccccc3)nc2)c1 (single isomer, unassigned) [62 Isomer 3]
52.6 | – | – | – | < 2 | Cc1cnn(-c2ccc(NC(=O)C(NCC(C)c3ccc(C#N)cc3)c3ccccc3)nc2)c1 (single isomer, unassigned) [62 Isomer 4]
70 | – | – | – | 1.9 | CS(=O)(=O)N1CCN(c2ccc(NC(=O)C(NCCc3ccc(C#N)cc3)c3ccccc3)nc2)CC1 (single isomer, unassigned) [68 Isomer 2]
85.2 | – | – | – | 4.13 | CC(=O)N1CCN(c2ccc(NC(=O)C(NCCc3ccc(C#N)cc3)c3ccccc3)nc2)CC1 (single isomer, unassigned) [72 Isomer 1]

IC50 [1] [nM] | EC50 ([2]; Homo sapiens) [nM] | EC50 [2] [nM] | EC50 ([2]; Homo sapiens, HCT-116, 2 h) [nM] | IC50 (full length p300) [nM] | Compound
> 2000 | – | – | – | 46.9 | CC(=O)N1CCN(c2ccc(NC(=O)C(NCCc3ccc(C#N)cc3)c3ccccc3)nc2)CC1 (single isomer, unassigned) [72 Isomer 2]
> 2000 | – | – | – | 214 | Cn1cc(-c2cnc(NC(=O)C(NCCc3ccc(C#N)cc3)c3ccccc3)cc2F)cn1 (single isomer, unassigned) [74 Isomer 1]
146 | – | – | – | 5 | Cn1cc(-c2cnc(NC(=O)C(NCCc3ccc(C#N)cc3)c3ccccc3)cc2F)cn1 (single isomer, unassigned) [74 Isomer 2]
149 | – | – | – | 4.2 | Cn1cc(-c2cnc(NC(=O)C(NCCc3ccc(C#N)cc3)c3ccccc3)c(F)c2)cn1 (single isomer, unassigned) [75 Isomer 1]
> 2000 | – | – | – | 387 | Cn1cc(-c2cnc(NC(=O)C(NCCc3ccc(C#N)cc3)c3ccccc3)c(F)c2)cn1 (single isomer, unassigned) [75 Isomer 2]
6.4 | – | – | – | 0.75 | CC(CNC(C(=O)Nc1ccc(-c2cnn(C)c2)cn1)c1ccccc1)c1ccc(C#N)c(F)c1 (single isomer, unassigned) [91 Isomer 2]
6.59 | – | – | – | 1 | CC(CNC(C(=O)Nc1ccc(-c2cnn(C)n2)cn1)c1ccccc1)c1ccc(C#N)cc1 (single isomer, unassigned) [98 Isomer 2]
16.4 | – | – | – | 0.7 | C[C@H](CNC(C(=O)Nc1ccc(-c2ccn(C)c(=O)c2)cn1)c1ccccc1)c1ccc(C#N)cc1 (single isomer, unassigned) [105 Isomer 2]
26.1 | – | – | – | 3.3 | C[C@H](CNC(C(=O)Nc1ccc(C2CC(=O)N(C)C2)cn1)c1ccccc1)c1ccc(C#N)cc1 (single isomer, unassigned) [109 Isomer 4]
10.5 | – | – | – | 0.73 | Cc1c(-c2ccc(NC(=O)C(NC[C@@H](C)c3ccc(C#N)cc3)c3ccccc3)nc2)cnn1C (single isomer, unassigned) [114 Isomer 2]
32.7 | – | – | – | 1.2 | Cc1cc(NC(=O)C(NC[C@@H](C)c2ccc(C#N)cc2)c2ccccc2)ncc1-c1cnn(C)c1 (single isomer, unassigned) [115 Isomer 2]
> 2000 | – | – | – | 2020 | Cn1cc(-c2cccc(NC(=O)C(NCCc3ccc(C#N)cc3)c3ccccc3)n2)cn1 (single isomer, unassigned) [123 Isomer 1]
> 2000 | – | – | – | 13500 | Cn1cc(-c2cccc(NC(=O)C(NCCc3ccc(C#N)cc3)c3ccccc3)n2)cn1 (single isomer, unassigned) [123 Isomer 2]
11 | – | – | – | 1.78 | CC1CN(c2ccc(NC(=O)C(NC[C@@H](C)c3ccc(C#N)cc3)c3ccccc3)nc2)CC(=O)N1C (single isomer, unassigned) [124 Isomer 1]
14 | – | – | – | < 3.24 | Cc1nn(C)c(C)c1-c1ccc(NC(=O)C(NC[C@@H](C)c2ccc(C#N)cc2)c2ccccc2)nc1 (single isomer, unassigned) [130 Isomer 2]
26 | – | – | – | < 3.24 | C[C@H](CNC(C(=O)Nc1ccc(-c2cnn(C)c(=O)c2)cn1)c1ccccc1)c1ccc(C#N)cc1 (single isomer, unassigned) [139 Isomer 1]
19 | – | – | – | < 3.24 | Cn1cc(-c2ccc(NC(=O)C(NCC(c3ccc(C#N)cc3)C(F)(F)F)c3ccccc3)nc2)cn1 (single isomer, unassigned) [149 Isomer 2]
966 | – | – | – | 40.6 | Cn1cc(-c2ccc3c(c2)CCN3C(=O)C(NCCc2ccc(C#N)cc2)c2ccccc2)cn1 (single isomer, unassigned) [152 Isomer 1]
31.8 | – | – | – | < 2 | Cn1cc(-c2ccc3c(c2)CCN3C(=O)C(NCCc2ccc(C#N)cc2)c2ccccc2)cn1 (single isomer, unassigned) [152 Isomer 2]
10.2 | – | – | – | 0.74 | (R, S)- and (S, S)-2-((2- (4- cyanophenyl)propyl)ami- no)-N-(5-(1,3-dimethyl- 1H-pyrazol-4-yl)pyridin- 2-yl)-2-phenylacetamide [113 Isomer 2]
